Results published in BindingDB's records for doi:10.1021/jm7014155 (Bryn Mawr College, 2008).

Molecular target: Indoleamine 2,3-dioxygenase 1 (Homo sapiens, UniProt P14902)
Experiment: Enzyme Inhibition Assay
Conditions: pH 6.5; 37 °C
Experimental: The IC50 inhibition assays were performed in a 96-well microtiter plate format using purified recombinant IDO, which was added to the substrate, L-tryptophan (L-Trp), and the inhibitor. After the reaction, the product N-formylkynurenine was converted to kynurenine. The yellow color generated from reaction with kynurenine was measured at 490 nm using a microtiter plate reader. The data were analyzed using Graph Pad Prism 4 software (Graph Pad Software Inc.).

Sequence of Indoleamine 2,3-dioxygenase 1 (P14902 whole entry): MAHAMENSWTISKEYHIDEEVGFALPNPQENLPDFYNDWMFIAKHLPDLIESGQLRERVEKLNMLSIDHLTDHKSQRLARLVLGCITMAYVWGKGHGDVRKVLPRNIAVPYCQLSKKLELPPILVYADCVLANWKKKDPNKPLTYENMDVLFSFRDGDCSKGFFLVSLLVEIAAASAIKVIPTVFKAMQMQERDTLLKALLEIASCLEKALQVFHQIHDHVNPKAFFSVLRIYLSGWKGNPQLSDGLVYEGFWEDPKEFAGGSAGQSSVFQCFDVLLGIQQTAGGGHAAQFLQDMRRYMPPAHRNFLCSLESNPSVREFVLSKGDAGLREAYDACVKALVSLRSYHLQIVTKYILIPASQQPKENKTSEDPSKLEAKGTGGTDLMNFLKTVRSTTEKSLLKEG

IC50 [µM] | Structure (SMILES)
675 | O=C1CC(=O)c2ccccc2C1=O
1.1 | CC1=CC(=O)c2ccccc2C1=O [Vitamin K3]
